Results reported in patent US20260109731A1, “NE[…] USE THEREOF” (HUNAN MINGRUI PHARMACEUTICAL CO., LTD., priority 2023, published 2026).
“And” between values parts separate entries of the source, which are not always exact repeats. Equal entries are not always repeated.

Test: In vitro phase I metabolic stability in male SD rat hepatic microsomes
Type: in vitro ADME
Details: for Peak area ratio (test compound/testosterone-D3 (internal standard)), mean value: mean of triplicate; for Peak area ratio (test compound/testosterone-D3 (internal standard)): single replicates -1, -2, -3
Description: Phase I metabolic stability kit (purchased from HUIZHI HEYUAN BIOTECHNOLOGY (BEIJING) CO., LTD), with the following components of the product:
Positive substrate testosterone solution (10 mM): diluted with acetonitrile to prepare a 200 μM solution for later use; stop solution & internal standard (testosterone-D3): dissolved with acetonitrile to prepare a 5 ng/mL solution for later use.
• 1) all components of the kit were thawed in an ice bath and placed on ice for later use; • 2) an incubation system (taking 200 μL system as an example) was prepared:
• 3) 160 μL of pre-incubation solution B was added into the centrifuge tube containing 40 μL of pre-incubation solution A, uniform mixing was performed by pipetting three times, and the resulting mixture was immediately placed in a water bath at 37° C. for incubation and timing was started; • 4) at predetermined incubation time points (0, 5, 10, 15, 30, 45, 60 minutes), the incubation solution was quantitatively taken out, and 200 μL of stop solution (5 ng/mL testosterone-D3 in acetonitrile, pre-chilled at 4° C.) was added to terminate the reaction (stop solution volume: incubation system volume=1:1). Experimental samples were prepared in triplicate at each time point.
To verify the validity of the experiment, a positive control group was established concurrently in the whole experiment to evaluate whether the incubation system functioned properly, with the preparation method as follows: the compound to be tested was replaced with the positive substrate testosterone (200 μM in acetonitrile) from the phase I metabolic stability kit, and the other components of the incubation system and experimental method were the same as those of the experimental group.
The ratio of the chromatographic peak area of the compound to be tested to the chromatographic peak area of the testosterone-D3 (internal standard) was used as the calculated data. By taking the peak area ratio at time zero of the test compound as 100%, the remaining percentages were calculated by comparing the peak area ratio at each time point with the peak area ratio at time zero, and the natural logarithms of the remaining percentages of the substrate at each time point are then subjected to linear regression against the incubation times to obtain the slope k. Therefore, the in vitro metabolic half-life (T1/2) and intrinsic clearance (CLint) were calculated using the following formulas: […]

## C[C@]12CC[C@H]3[C@@H](CCC4=CC(=O)CC[C@@]43C)[C@@H]1CC[C@@H]2O [Positive control, testosterone]
Incubation time 0 min
  Peak area ratio (test compound/testosterone-D3 (internal standard)), mean value: 20.01
  Peak area ratio (test compound/testosterone-D3 (internal standard)): 20.12 and 19.58 and 20.33
Incubation time 10 min
  Peak area ratio (test compound/testosterone-D3 (internal standard)), mean value: 0.06
  Peak area ratio (test compound/testosterone-D3 (internal standard)): 0.05 and 0.08 and 0.06
